Like-named read-outs stand apart in the source and are kept apart here.
How the values were obtained:
[1] = Light absorption / molar absorptivity of DDAO and 7-aminoDDAO derivatives; format: physicochemical; conditions: for light absorption maximum: FIG. 4, 50% MeOH
Procedure: (§1) The molar extinction of 7-aminoDDAO (55 000 M-1 cm-1) was determined by the attachment of reference chromophores with known molar absorptivity (Table 1). Light absorption spectra of the labeled caspofungin and posaconazole derivatives were close to superposition of those for the 7-(4-aminobutyl)amino-DDAO and the corresponding drugs, which is illustrated in FIG. 4 on the example of posaconazole derivative. […] Thus, excitation and emission maxima for DDAO were 653 nm and 660 nm correspondingly, while for 7-(4-aminobutyl)amino-DDAO they shifted to 671 nm and 679 nm correspondingly. […] Remarkably, the shape of the excitation spectrum curve for ionized form of DDAO was the same in 50% and 100% methanol.

[2] = Fluorescence spectra, relative brightness and quantum yield in various solvents; format: physicochemical; set-up: brightness: unit not given here; conditions: for QY (50% MeOH), quantum yield / RB (50% MeOH), relative brightness / QY (MeOH), quantum yield / RB (MeOH), relative brightness / QY (H20), quantum yield / RB (H2O), relative brightness: 1 μM; for increase of light emission in 50% methanol compared to water: 50% methanol vs water; for increase of emission in 100% methanol compared to 50% methanol: 100% methanol vs 50% methanol; for QY (H20), quantum yield / RB (H2O), relative brightness: H2O
Procedure: as §1
However, posaconazole derivative behaved differently. […] The suppression of the fluorophore light emission in posaconazole derivative is likely due to the presence of extended light-absorbing moiety that can stack to the fluorophore, causing contact quenching (FIG. 7). […] in fluorescence is expected upon interaction of the labeled drug with its cellular target, whereby stacking interactions of the fluorophore with the drug moiety have to be destroyed (FIG. 7B). This beneficial “signaling” effect is expected to greatly increase the contrast of imaging by minimizing the background signal of non-bound compound, which remains “dark”.
Table 2 illustrates light emission properties of DDAO-based diagnostic probes and reference compounds, and presents the data on quantum yield and brightness for 7-aminoDDAO compound at various conditions. These parameters were determined using a reference fluorophore Cy5.5, (which has the excitation and emission maxima nearly identical to those for 7-aminoDDAO) and published data for original DDAO fluorophore. […] This was perhaps due to higher light absorptivity and higher quantum yield of the amino-derivative. The difference in brightness further increased in 50% methanol (21 000 and 9000 correspondingly).

[3] = system: Candida albicans; assay: Imaging of fungal infection in mice kidneys by whole-body fluorescence imaging; format: in vivo
Procedure: Mice were infected via intravenous inoculation with 5*10^5 CFU of wild type Candida albicans and an infection that occurs most prominently in the kidneys. After 48 hours post infection, a fixed concentration of 0.12 ug/mL of CSF-DDAO is added via tail vein injection at 0, 2, 4 and 8 hours to assess the optimal time for visualization of the infection. At each time point, the mice were imaged in a non-invasive whole-body animal imaging system to detect fluorescence energy. Animals infected with Candida albicans show proliferation of the fungal infection in the kidneys after 48 hours. […] Maximum labeling occurred at 8 hours. […] At the same time no signal was detected in uninfected and/or untreated organs.

[4] = reference chromophores with known molar absorptivity; cited from earlier work
[5] = Chemical and photochemical stability of the fluorophore; format: physicochemical
[6] = listed as 7-(4-aminobutyl)amino-DDAO

Molecule	ε [1]	QY (50% MeOH), quantum yield [2]	RB (50% MeOH), relative brightness [2]	increase of light emission in 50% methanol compared to water [2]	QY (MeOH), quantum yield ([2]; 100% MeOH)	RB (MeOH), relative brightness ([2]; 100% MeOH)	increase of emission in 100% methanol compared to 50% methanol [2] [fold]	QY (H20), quantum yield [2]	RB (H2O), relative brightness [2]	Molar absorption for attached compounds [4]	molar absorbance [1]	light absorption maximum [1] [nm]	brightness [2]	pH dependence of the fluorophore [2]	other results
DDAO—NH—(CH2)4—NCS-Caspofungin [DDAO Casp]	53,000 M^−1cm^−1	0.26	13,800	2 fold	0.42	22,000	1.3	0.11	6,000	–	–	–	–	–	fluorescent signal of the infected organ (kidney) ([3]; C. albicans infected mice kidney, FIG. 8): bright fluorescent signal; labeling of cells in the target organs over time ([3]; infected mice, whole body imaging at 0, 2, 4 and 8 hours): progressive labeling of cells in the target organs over time; time of maximum labeling after probe injection ([3]; mice 48 h post i.v. infection with C. albicans, 0.12 ug/mL via tail vein, whole body imaging): 8 h; accumulation in the kidneys in the absence of infection ([3]; uninfected mice): did not accumulate in the kidneys
Cc1cc(C)n2c1C=C1C=CC(CCC(=O)O)=[N+]1[B-]2(F)F [BODIPY-FL]	–	–	–	–	–	–	–	–	–	82,000 M^−1cm^−1	–	–	–	–	–
CC1(C)C2=C(Cl)C(=O)C(Cl)=CC2=Nc2ccc(NCCCCN)cc21 [DDAO NH2, DDAO—NH—(CH2)4—NH2]	53,000 M^−1cm^−1	0.40	21,000	ca. 2.5 fold	0.25	13,000	–	0.19	10,000	–	53,000	673	6,000	pH-independent	Calculated molar absorption for DDAO residue ([1]; attached compound BODIPY-FL): 70,000 M^−1cm^−1; Calculated molar absorption for DDAO residue ([1]; attached compound DNP): 32,000 M^−1cm^−1; Calculated molar absorption for DDAO residue ([1]; attached compound Posaconazole): 59,000 M^−1cm^−1; Calculated molar absorption for DDAO residue, Average ([1]; average over three attached chromophores): 53,000 M^−1cm^−1; molar extinction ([1]; determined by attachment of reference chromophores): 55 000 M-1 cm-1; long-wavelength emission range [2]: 640-700 nm; RB (50% MeOH), relative brightness ([2]; listed as 7-aminoDDAO): 21 000; emission maximum in 100% MeOH ([2]; 100% MeOH): 670 nm; excitation maximum in 100% MeOH ([2]; 100% MeOH): 620 nm; drop of light emission intensity in 100% MeOH ([2]; 100% MeOH vs 50% methanol): 1.7 fold; RB (MeOH), relative brightness ([2]; 100% MeOH, listed as 7-aminoDDAO): 13 000; RB (H2O), relative brightness ([2]; listed as 7-aminoDDAO): 10 000; emission maximum [2, 6]: 679 nm; excitation maximum [2, 6]: 671 nm; emission maximum ([2]; listed as 7-aminoDDAO): 680 nm; emission maximum ([2]; listed as 7-aminoDDAP): 680 nm; excitation maximum ([2]; listed as 7-aminoDDAP): 670 nm; chemical and photochemical stability [5]: chemically and photochemically stable
CC[C@@H]([C@H](C)O)n1ncn(-c2ccc(N3CCN(c4ccc(OC[C@@H]5CO[C@@](Cn6cncn6)(c6ccc(F)cc6F)C5)cc4)CC3)cc2)c1=O [Posaconazole]	–	–	–	–	–	–	–	–	–	34,000 M^−1cm^−1	–	–	–	–	–
CC1(C)C2=C(Cl)C(=O)C(Cl)=CC2=Nc2ccc(O)cc21 [DDAO, 7-hydroxy-9H-(1,3-dichloro-9,9-dimethylacridin-2-one), reference compound]	48,000 M^−1cm^−1	0.19	9000	–	0.25	12 000	1.3	0.125	6 000	–	48,000	653	3,600	pH-dependent	emission maximum [2]: 660 nm; excitation maximum [2]: 653 nm; RB (50% MeOH), relative brightness ([2]; listed as DDAO (pH 9.0)): 9,000; RB (MeOH), relative brightness ([2]; 100% MeOH, listed as DDAO (pH 9.0)): 12,000; RB (H2O), relative brightness ([2]; listed as DDAO (pH 9.0)): 6,000

From US9700638B2, “Near infrared label and methods of use thereof” (priority 2013, dated 2017)
